# Data: article PMC12040169 (PLOS Biology, 2025)
# Assay: in vitro
# Conditions: human, hela cells, % viability
row,Compound,"viability at 28.5 h, 10 µM"
1,COc1cccc(COc2cnc(-c3ccccc3)c(N)n2)c1OC [CBK145066],101%
2,COc1ccccc1-c1ncc(OCc2ccccn2)nc1N [CBK145070],109%
3,COc1ccccc1-c1ncc(OC2CCN(C)C2)nc1N (stereo not drawn) [CBK145081],92.4%
4,COc1ccc(-c2ncc(Oc3cccc(NC(C)=O)c3)nc2N)c(OC)c1 [CBK145087],113%
5,COCOc1ccc(-c2ncc(OCc3ccc4c(c3)OCO4)nc2N)cc1 [CBK145101],100%
6,COCc1cccc(-c2ncc(OCc3ccccn3)nc2N)c1 [CBK145108],93.9%
7,Nc1nc(OCCc2cccs2)cnc1-c1ccc(OC(F)(F)F)cc1 [CBK145116],92.7%
8,Nc1nc(OCc2ccncc2)cnc1-c1ccc(OC(F)(F)F)cc1 [CBK145121],99.8%
9,Cc1ccc(-c2ncc(OCCN3CCCC3=O)nc2N)c(C)c1 [CBK145127],99.3%
10,Cc1ccc(-c2ncc(OC3CCN(C)CC3)nc2N)c(C)c1 [CBK145139],97.5%
11,Nc1nc(OCc2cccs2)cnc1-c1ccsc1 [CBK145161],95.8%
12,Nc1nc(OCCOc2ccccc2)cnc1-c1ccsc1 [CBK145163],109%
13,Cn1cc(-c2ncc(OCCc3cccs3)nc2N)cn1 [CBK145167],87.8%
14,Cn1cc(-c2ncc(OCCOc3ccccc3)nc2N)cn1 [CBK145171],108%
15,Nc1nc(OCc2ccccc2)cnc1-c1cccc(C(F)(F)F)c1 [CBK145179],99.4%
16,COc1cccc(Oc2cnc(-c3ccc(C(=O)N(C)C)cc3)c(N)n2)c1 [CBK145185],95.5%
17,CN(C)C(=O)c1ccc(-c2ncc(OCc3cccs3)nc2N)cc1 [CBK145187],102%
18,Nc1nc(OCCN2CCOCC2)cnc1-c1cc(Cl)cc(Cl)c1 [CBK145198],99.8%
19,CCC(CC)C(=O)Nc1nc(OCCN2CCCC2=O)cnc1-c1ccc(Cl)cc1Cl [CBK145210],92.6%
20,COCOc1ccc(-c2ncc(OC)nc2NC(=O)COC)cc1 [CBK145216],92.7%
21,COc1cnc(-c2cnn(C)c2)c(NC(=O)c2cc(C)oc2C)n1 [CBK145218],93.2%

row,Compound,"viability at 28.5 h, 10 µM"
1,COc1cnc(/C=C\c2ccccc2)c(NC(=O)c2cc(C)oc2C)n1 [CBK145222],95.1%
2,COCOc1ccc(-c2ncc(OCCN3CCCC3=O)nc2NC(C)=O)cc1 [CBK145253],104%
3,COc1cnc(-c2ccccc2OC)c(NC(=O)Cc2ccccc2)n1 [CBK145260],95.8%
4,COc1ccccc1-c1ncc(OCC(F)(F)F)nc1NC(=O)C1CC1 [CBK145275],86.4%
5,COc1cnc(-c2ccsc2)c(NC(=O)c2cc(C)oc2C)n1 [CBK145294],93.2%
6,CC(C)CC(=O)Nc1nc(OCC(F)(F)F)cnc1-c1ccc(Cl)cc1Cl [CBK145356],94.2%
7,O=C(Nc1nc(OCC(F)(F)F)cnc1-c1ccc(Cl)cc1Cl)c1cc2ccccc2s1 [CBK145358],87.4%
8,COc1ccc(CC(=O)Nc2nc(OCC(F)(F)F)cnc2-c2ccc(Cl)cc2Cl)cc1 [CBK145359],91%
9,CC(=O)Nc1nc(OCCN2CCCC2=O)cnc1/C=C\c1ccccc1 [CBK145371],84.9%
10,COc1cnc(-c2cccc(C(=O)N(C)C)c2)c(NC(=O)c2ccccc2)n1 [CBK145385],102%
11,COc1cnc(-c2ccc(Cl)cc2Cl)c(NC(=O)Cc2ccccc2)n1 [CBK145398],92.8%
12,CC(=O)Nc1nc(OCCOc2ccccc2)cnc1-c1cnn(C)c1 [CBK145425],92.6%
13,COc1ccc(CC(=O)Nc2nc(OC)cnc2-c2ccoc2)cc1 [CBK145435],92.8%
14,CCCCN(C)c1c(CC)nc2ccc(C(=O)NCCc3ccccn3)cn12 [CBK145441],98.4%
15,CCCCN(C)c1c(CC)nc2ccc(C(=O)N3CCNC(=O)C3)cn12 [CBK145460],87.9%
16,CCc1nc2ccc(C(=O)NCCN3CCNC3=O)cn2c1N(CCN(C)C)CC1CC1 [CBK145469],89.2%
17,CCCCN(C=O)c1c(CC)nc2ccc(C(=O)Nc3ccc(Cl)c(Cl)c3)cn12 [CBK145470],84.1%
18,CCc1nc2ccc(C(=O)NCc3ccc4c(c3)OCO4)cn2c1N(CCN(C)C)CC1CC1 [CBK145472],97.1%
19,CCc1nc2ccc(C(=O)N(C)CCN(C)C)cn2c1N(C)Cc1nccs1 [CBK145474],96.8%
20,CCOC(=O)N(C)c1c(CC)nc2ccc(C(=O)Nc3cc(-c4ccccc4)ccc3OC)cn12 [CBK145478],89.6%
21,Cc1nc2ccc(C(=O)N3CCCCC3)cn2c1N(C)C=O [CBK145480],100%

row,Compound,"viability at 28.5 h, 10 µM"
1,Cc1nc2ccc(C(=O)N(C)Cc3ccco3)cn2c1N(C)C=O [CBK145482],99%
2,CCc1nc2ccc(C(=O)Nc3ccc(NC(C)=O)cc3)cn2c1N(C)CC [CBK145483],94.5%
3,CCc1nc2ccc(C(=O)NC3CCN(Cc4ccccc4)CC3)cn2c1N(C)CC [CBK145488],88.3%
4,CCc1nc2ccc(C(=O)NCc3cccs3)cn2c1N(C)CC [CBK145492],108%
5,CCc1nc2ccc(C(=O)NCCOc3ccc(OC)cc3)cn2c1N(C)CC [CBK145504],91.9%
6,CCc1nc2ccc(C(=O)N3CCN(S(=O)(=O)CC)CC3)cn2c1N(C)CC [CBK145520],85.1%
7,CCc1nc2ccc(C(=O)Nc3ccc4c(c3)OCC(=O)N4)cn2c1N(C)CC [CBK145521],96.8%
8,CCc1nc2ccc(C(=O)N3CCN(c4ccccc4)CC3)cn2c1N(C)Cc1ccc(OC)cc1 [CBK145584],85.4%
9,CCc1nc2ccc(C(=O)Nc3ccc(Cl)c(Cl)c3)cn2c1N(C)Cc1ccc(OC)cc1 [CBK145585],93.6%
10,CCc1nc2ccc(C(=O)NCCNC(C)=O)cn2c1N(C)Cc1ccc(NC(C)=O)cc1 [CBK145612],87.4%
11,CCc1nc2ccc(C(=O)N3CCN(C(=O)c4ccco4)CC3)cn2c1N(C)Cc1ccncc1 [CBK145635],94.5%
12,CCc1nc2ccc(C(=O)NCCc3c[nH]c4ccccc34)cn2c1N(C)Cc1ccncc1 [CBK145636],99.7%
13,CCCCN(C(C)=O)c1c(CC)nc2ccc(C(=O)N(C)CCN(C)C)cn12 [CBK145739],91.7%
14,CCCCN(C(C)=O)c1c(CC)nc2ccc(C(=O)NCc3ccccc3OC)cn12 [CBK145761],96%
15,CCc1nc2ccc(C(=O)N(C)CCN(C)C)cn2c1N(C)C(=O)C1CCCCC1 [CBK145771],93.8%
16,CCc1nc2ccc(C(=O)N3CCNC(=O)C3)cn2c1N(C)C(=O)COc1ccccc1 [CBK145871],107%
17,CCc1nc2ccc(C(=O)NC3=NN(c4ccccc4)C(=O)C3)cn2c1N(C)C(=O)COc1ccccc1 [CBK145873],91.3%
18,CCc1nc2ccc(C(=O)Nc3ccc(OC)c(OC)c3)cn2c1N(C)C(=O)Nc1ccccc1OC [CBK145875],117%
19,CCc1nc2ccc(C(=O)N3CCN(c4ccccc4)CC3)cn2c1N(C)C(=O)Nc1ccccc1OC [CBK145886],96.2%
20,CCCCNC(=O)c1ccc2nc(C)c(N(C)CC3CCCCC3)n2c1 [CBK145913],99.6%
21,CCc1nc2ccc(C(=O)N(C)Cc3ccccc3)cn2c1N(C=O)CC [CBK145936],102%

row,Compound,"viability at 28.5 h, 10 µM"
1,CCN(CC)c1c(C)nc2ccc(C(=O)N(C)CCN(C)C)cn12 [CBK145950],90.6%
2,CCN(CC)c1c(C)nc2ccc(C(=O)NC3CCN(C)CC3)cn12 [CBK145965],98.7%
3,CCc1nc2ccc(C(=O)N(C)CCN(C)C)cn2c1N(CC)CCOC [CBK146018],94.2%
4,CCc1nc2ccc(C(=O)N3CCCCC3)cn2c1N(C)CCC(C)C [CBK146065],96.3%
5,Cc1nc2ccc(C(=O)N(C)CCN(C)C)cn2c1N(C)Cc1cccs1 [CBK146083],102%
6,COCCN(Cc1ccc(OC)cc1)c1c(C)nc2ccc(C(=O)Nc3ccc(NC(C)=O)cc3)cn12 [CBK146111],99.3%
7,CCS(=O)(=O)N1CCN(C(=O)c2ccc3nc(C)c(N(CCOC)Cc4ccc(OC)cc4)n3c2)CC1 [CBK146153],98.2%
8,CCc1nc2ccc(C(=O)N3CCCC(C(N)=O)C3)cn2c1N(CC)CCN(C)C (stereo not drawn) [CBK146185],98.8%
9,CCc1nc2ccc(C(=O)N3CCN(C)CC3)cn2c1N(C)Cc1nccn1C [CBK146299],115%
10,CCc1nc2ccc(C(=O)N(C)C(C)C)cn2c1N(C)CCN1CCOCC1 [CBK146436],95.2%
11,CCOC(=O)N(C)c1c(CC)nc2ccc(C(=O)N(C)CCCN(C)C)cn12 [CBK146478],107%
12,CCC(CC)C(=O)N(C)c1c(C)nc2ccc(C(=O)N(C)CCN(C)C)cn12 [CBK146491],94.8%
13,CCC(CC)C(=O)N(C)c1c(C)nc2ccc(C(=O)NCCc3c[nH]c4ccccc34)cn12 [CBK146495],85.5%
14,CCC(CC)C(=O)N(C)c1c(C)nc2ccc(C(=O)NCc3ccc(OC)cc3)cn12 [CBK146501],97.9%
15,CCC(CC)C(=O)N(C)c1c(C)nc2ccc(C(=O)N3CCN(S(=O)(=O)CC)CC3)cn12 [CBK146524],92%
16,CCC(CC)C(=O)N(C)c1c(C)nc2ccc(C(=O)Nc3cccc(NS(C)(=O)=O)c3)cn12 [CBK146526],105%
17,Cc1nc2ccc(C(=O)N(C)CCN(C)C)cn2c1N(C)C(=O)c1cccs1 [CBK146528],120%
18,Cc1nc2ccc(C(=O)NC3CCN(Cc4ccccc4)CC3)cn2c1N(C)C(=O)c1cccs1 [CBK146529],99.9%
19,CCc1nc2ccc(C(=O)NCCN3CCCC3)cn2c1N(C)C(=O)c1ccncc1 [CBK146655],90.5%
20,CCc1nc2ccc(C(=O)N3CCN(C(C)=O)CC3)cn2c1N(C)Cc1ccc(Cl)cc1 [CBK146718],105%
21,Cc1nc2ccc(C(=O)NC3=NN(c4ccccc4)C(=O)C3)cn2c1N(C)C(=O)CCc1ccccc1 [CBK146817],89.8%
